From US20250270512A1, “ADDITIVE FOR UNDIFFERENTIATION MAINTAINING MEDIUM” (AJINOMOTO CO., INC., priority 2017, published 2025)
“Also recorded” adds a separate entry of the source.

Assays:
Assay type in all cases: cell-based
[1] = system: human induced pluripotent stem cells 201B7; assay: Proliferation promoting effect of L-tryptophan metabolites in mTeSR1, cell coating rate by IncuCyte, 201B7; details: mTeSR1 medium, final 50, 100, 200, 500, 1000 μM, 0-120 hr
Method: L-kynurenine (Sigma-Aldrich Co. LLC: […]) was added at a final concentration of 50, 100, 200, 500, 1000 μM to mTeSR1 medium and the proliferation promoting effect was examined using the prepared medium. Y-27632 was added at a final concentration of 10 μM for 2 days after seeding. As a basement membrane matrix, Matrigel (Japan Becton, Dickinson and Company) was applied on a 6 well plate and 20,000 cells were single cell seeded per well. Two days after the cell seeding, evaluation was performed using the medium free of Y-27632 and prepared as mentioned above. The time of L-kynurenine addition was taken as 0 and the cell coating rate was measured using IncuCyte at 0, 24, 48, 72, 96 and 120 hr later. […] Kynurenic acid (Sigma-Aldrich Co. LLC: […]) was added at a final concentration of 50, 100, 200, 500, 1000 μM to mTeSR1 medium and the proliferation promoting effect was examined using the prepared medium. Y-27632 was added at a final concentration of 10 μM for 2 days after seeding. As a basement membrane matrix, Matrigel (Japan Becton, Dickinson and Company) was applied on a 6 well plate and 20,000 cells were single cell seeded per well. […] The time of kynurenic acid addition was taken as 0 and the cell coating rate was measured using IncuCyte at 0, 24, 48, 72, 96 and 120 hr later.

[2] = system: human induced pluripotent stem cells 201B7; assay: Proliferation promoting effect of L-tryptophan, cell coating rate by IncuCyte, 201B7; details: final 44-1408 μM, 24-120 hr after addition
Method: First, the proliferation promoting effect of L-tryptophan on induced pluripotent stem cells (iPS cells) was evaluated using 3 kinds of commercially available media. As the human iPS cell, 201B7 strain purchased from iPS Academia Japan, Inc. was used and cultured under the conditions of 5% CO2/37° C.
L-tryptophan (Sigma-Aldrich Co. LLC: T8941) was added to the media of Essential-8 (Life Technologies Inc.: A1517001), mTeSR1 (STEM CELL Technologies Inc.: 05850), TeSR2 (STEM CELL Technologies Inc.: 05860) at a given concentration, used for culture and the effect thereof was examined.
(§1) L-tryptophan (Sigma-Aldrich Co. LLC: T8941) was added at a final concentration of 44, 176, 352, 704, 1408 μM to Essential-8, mTeSR1, TeSR2 media and the proliferation promoting effect of L-tryptophan was examined using the prepared media. A 6 well plate coated with Matrigel (Japan Becton, Dickinson and Company) as a basement membrane matrix was prepared and 13,000 cells were single cell seeded per well. The next day of cell seeding, evaluation was performed using the medium prepared as mentioned above. The culture period was set to 6 days, the time of L-tryptophan addition was set to 0 and the cell coating rate was measured using IncuCyte at 24, 48, 72, 96 and 120 hr later. As the medium to be used when seeding, a medium without addition of Y-27632 at a final concentration of 10 μM was used and culturing was performed.

[3] = system: human induced pluripotent stem cells 253G4; assay: Proliferation promoting effect of L-tryptophan, cell coating rate by IncuCyte, 253G4; details: mTeSR1 medium, final 44-1408 μM, 24-120 hr
Method: (§2) Then, the proliferation promoting effect of L-tryptophan was evaluated using other strain 253G4 of human induced pluripotent stem cell (iPS cell) and human embryonic stem cell H9 strain. As the medium, mTeSR1 (STEM CELL Technologies Inc.: 05850) was used and culturing was performed under 5% CO2/37° C. conditions.
(§3) L-tryptophan (Sigma-Aldrich Co. LLC: T8941) was added to mTeSR1 medium (STEM CELL Technologies Inc.: 05850) at a given concentration, used for culture and the effect thereof was examined.
as §1, with “to mTeSR1 medium” for “to Essential-8, mTeSR1, TeSR2 media”, “prepared medium.” for “prepared media.”, “and 40,000 253G4 cells and 10,000 H9” for “and 13,000”, “performed by replacing the medium with” for “performed using”

[4] = system: human embryonic stem cells H9; assay: Proliferation promoting effect of L-tryptophan, cell coating rate by IncuCyte, H9; details: mTeSR1 medium, final 44-1408 μM, 24-120 hr
Method: as §2, §3
as §1, with “to mTeSR1 medium” for “to Essential-8, mTeSR1, TeSR2 media”, “prepared medium.” for “prepared media.”, “and 40,000 253G4 cells and 10,000 H9” for “and 13,000”, “performed by replacing the medium with” for “performed using”

[5] = system: human embryonic kidney cell line HEK293T cells; assay: Proliferation promoting effect of L-tryptophan, cell coating rate by IncuCyte, HEK293T; details: 293T; DMEM with 10% fetal bovine serum; final 44-1408 μM; 24-120 hr
Method: Next, the proliferation promoting effect of L-tryptophan was evaluated using human embryonic kidney cell line HEK293T cells. As the medium, DMEM medium (Thermo Fisher Scientific K. K.: 11965) added with 10% fetal bovine serum was used and culturing was performed under 5% CO2/37° C. conditions.
L-tryptophan (Sigma-Aldrich Co. LLC: T8941) was added at a given concentration to DMEM medium (Thermo Fisher Scientific K.K.: 11965) added with 10% fetal bovine serum, used for culture and the effect thereof was examined.
L-tryptophan (Sigma-Aldrich Co. LLC: T8941) was added at a final concentration of 44, 176, 352, 704, 1408 μM to DMEM medium (Thermo Fisher Scientific K.K.: 11965) added with 10% fetal bovine serum and the proliferation promoting effect of L-tryptophan was examined using the prepared medium. A 6 well plate was prepared and 10,000 cells were single cell seeded per well. The next day of cell seeding, evaluation was performed by replacing the medium with the medium prepared as mentioned above. The culture period was set to 6 days, the time of L-tryptophan addition was set to 0 and the cell coating rate was measured using IncuCyte at 24, 48, 72, 96 and 120 hr later.

[6] = system: human iPS cell 201B7 strain; assay: Expression of undifferentiated marker after addition of high concentration of L-tryptophan; details: data not shown

| SMILES | cell coating rate (proliferation promoting effect) [1] | cell coating rate (proliferation promoting effect) ([2]; Essential-8 medium) | cell coating rate (proliferation promoting effect) ([2]; TeSR2 medium) | cell coating rate (proliferation promoting effect) ([2]; mTeSR1 medium) | cell coating rate (proliferation promoting effect) [3] | cell coating rate (proliferation promoting effect) [4] | cell coating rate (proliferation promoting effect) [5] | expression of undifferentiated marker (OCT, Nanog, alkaline phosphatase) [6] |
| --- | --- | --- | --- | --- | --- | --- | --- | --- |
| Nc1ccccc1C(=O)C[C@H](N)C(=O)O [L-kynurenine] | showed a cell proliferation promoting effect in the L-kynurenine 50-500 μM addition group |  |  |  |  |  |  |  |
| NC(Cc1c[nH]c2ccccc12)C(=O)O [L-tryptophan, 2-amino-3-(indolyl)propionic acid] |  | showed a proliferation promoting effect in an L-tryptophan concentration dependent manner; also recorded: showed an L-tryptophan concentration-dependent effect of promoting proliferation | showed a proliferation promoting effect in an L-tryptophan concentration dependent manner; also recorded: showed an L-tryptophan concentration-dependent effect of promoting proliferation | showed a proliferation promoting effect in an L-tryptophan concentration dependent manner; also recorded: showed an L-tryptophan concentration-dependent effect of promoting proliferation | concentration-dependent proliferation promoting effect of L-tryptophan was also confirmed; also recorded: showed an L-tryptophan concentration-dependent effect of promoting proliferation | concentration-dependent proliferation promoting effect of L-tryptophan was also confirmed; also recorded: showed an L-tryptophan concentration-dependent effect of promoting proliferation | concentration-dependent proliferation promoting effect of L-tryptophan was not confirmed; also recorded: did not show an L-tryptophan concentration-dependent effect of promoting proliferation | not influenced |
| O=C(O)c1cc(=O)c2ccccc2[nH]1 [kynurenic acid] | showed a cell proliferation promoting effect in the kynurenic acid 50-500 μM addition group |  |  |  |  |  |  |  |
